In patent US20130096067A1, “DROSOPHILA TUMOR STEM CELL MODEL AND USES THEREOF” (priority 2011, published 2013):
Structures can show the parent of a compound that is named as a salt. Numbered stars: 1 amine (or outer) side, 2 acyl side, 3 side chain; on linkers, the order of the positions; unused ones are H or OH. Bridge positions count the residues as written; N and C are the ends. Square brackets hold non-standard residues; d marks the D form. Peptide text beside a SMILES is read from it. I, II: the chains in the order shown. Actinocin(9to1) = Cc1c2oc3c(C)ccc(C(=O)[*:1])c3nc-2c(C(=O)[*:2])c(N)c1=O; NMeV = CN[C@H](C(=O)O)C(C)C; Sar = CNCC(=O)O

Tests used:
[1] = test system: Raf-1^gof intestinal tumors; assay: Luciferase screen of FDA-approved (NCI) drugs in 96-well plates, flies with Raf-1^gof intestinal tumors; format: in vivo, Drosophila; on Avg (3 + 6): test concentration or dose not given here; on Log2 (fold): test concentration or dose not given here
[2] = test system: Raf-1^gof intestinal tumors; conditions: for Fold: Table 3 summary of hits, Screen ICCB, luciferase relative to DMSO, fed three consecutive days in vials; for Log2 (fold) (luciferase activity, log2 of the fold difference relative to DMSO controls) / Fold (luciferase activity, fold difference relative to DMSO controls): screen of 480 ICCB compounds in vials, compounds fed to flies with one-day old Raf-1^gof tumors, assessed three days later, esg-Gal4 luciferase; for Fold (luciferase activity, fold difference relative to DMSO controls): averaged from multiple wells; on Fold (luciferase activity, fold difference relative to DMSO controls): test concentration or dose not given here; on Log2 (fold) (luciferase activity, log2 of the fold difference relative to DMSO controls): test concentration or dose not given here
[3] = average of Day 3 and Day 6 fold
[4] = log2 of the Day 3 fold difference in luciferase relative to DMSO controls
[5] = luciferase activity relative to DMSO controls, single dose of drug for three days, 96-well plates
[6] = six-day protocol: single dose for three days, then another dose for three more days

| Compound | Avg (3 + 6) [1, 3] | Log2 (fold) [1, 4] | Day 3 Fold [1, 5] | Day 6 Fold [1, 6] | also measured |
| --- | --- | --- | --- | --- | --- |
| CC[C@]1(O)C[C@@H]2CN(CCc3c([nH]c4ccccc34)[C@@](C(=O)OC)(c3cc4c(cc3OC)N(C)[C@H]3[C@@](O)(C(=O)OC)[C@H](OC(C)=O)[C@]5(CC)C=CCN6CC[C@]43[C@@H]65)C2)C1 [Vinblastine sulfate] | 0.158 fold | −2.445 | 0.184 fold | 0.131 fold | Fold [2]: 0.204 fold; Log2 (fold) (luciferase activity, log2 of the fold difference relative to DMSO controls) [2]: −2.290; Fold (luciferase activity, fold difference relative to DMSO controls) [2]: 0.204 |
| CO[C@@]12[C@H](COC(N)=O)C3=C(C(=O)C(C)=C(N)C3=O)N1C[C@@H]1N[C@@H]12 [Mitomycin C] | 0.204 fold |  |  |  | Day 3 Fold ([1]; po, 72 h): 0.279 fold; Log2 (fold) ([1]; po, 72 h): −1.842; Fold [2]: 0.470 fold; Log2 (fold) (luciferase activity, log2 of the fold difference relative to DMSO controls) [2]: −1.088; Fold (luciferase activity, fold difference relative to DMSO controls) [2]: 0.470 |
| O=C1CCC(N2C(=O)c3ccccc3C2=O)C(=O)N1 (stereo not drawn) [Thalidomide] | 1.008 fold | 0.136 | 1.099 fold | 0.918 fold | Log2 (fold) (luciferase activity, log2 of the fold difference relative to DMSO controls) [2]: −0.252; Fold (luciferase activity, fold difference relative to DMSO controls) [2]: 0.839 |
| O=NN(CCCl)C(=O)NCCCl [Carmustine] | 0.496 fold |  |  |  | Day 3 Fold ([1]; po, 72 h): 0.565 fold; Log2 (fold) ([1]; po, 72 h): −0.823 |
| Oc1ncnc2[nH]ncc12 [Allopurinol] | 1.997 fold | 1.281 | 2.430 fold | 1.565 fold |  |
| NC(=O)NO [Hydroxyurea] | 0.990 fold | −0.184 | 0.880 fold | 1.099 fold |  |
| O=c1[nH]cc(F)c(=O)[nH]1 [Fluorouracil] | 0.770 fold | −0.448 | 0.733 fold | 0.806 fold |  |
| S=P(N1CC1)(N1CC1)N1CC1 [Thiotepa] |  |  |  |  | Avg (3 + 6) ([1]; in vivo): 0.344 fold; Day 3 Fold ([1]; in vivo): 0.353 fold; Day 6 Fold ([1]; in vivo): 0.335 fold; Log2 (fold) ([1]; in vivo): −1.501 |
| Cc1nc(Nc2ncc(C(=O)Nc3c(C)cccc3Cl)s2)cc(N2CCN(CCO)CC2)n1 [Dasatinib] | 1.085 fold | 0.521 | 1.435 fold | 0.736 fold |  |
| COc1cc([C@@H]2c3cc4c(cc3[C@@H](O[C@@H]3O[C@@H]5CO[C@@H](C)O[C@H]5[C@H](O)[C@H]3O)[C@H]3COC(=O)[C@H]23)OCO4)cc(OC)c1O [Etoposide] | 0.817 fold | −0.134 | 0.911 fold | 0.722 fold | Log2 (fold) (luciferase activity, log2 of the fold difference relative to DMSO controls) [2]: −0.532; Fold (luciferase activity, fold difference relative to DMSO controls) [2]: 0.691 |
| Nc1ncn([C@H]2C[C@H](O)[C@@H](CO)O2)c(=O)n1 [Decitabine] | 0.569 fold | −1.077 | 0.474 fold | 0.663 fold |  |
| CS(=O)(=O)OCCCCOS(C)(=O)=O [Busulfan] | 0.936 fold | 0.166 | 1.122 fold | 0.750 fold |  |
| Nc1nc(F)nc2c1ncn2[C@@H]1O[C@H](CO)[C@@H](O)[C@@H]1O [Fludarabine] | 1.191 fold |  |  |  | Day 3 Fold ([1]; po, 72 h): 1.192 fold; Log2 (fold) ([1]; po, 72 h): 0.253 |
| CCCCCOC(=O)Nc1nc(=O)n([C@@H]2O[C@H](C)[C@@H](O)[C@H]2O)cc1F [Capecitabine] | 1.017 fold | −0.078 | 0.947 fold | 1.087 fold |  |
| CN(N=O)C(=O)N[C@@H](C=O)[C@@H](O)[C@H](O)[C@H](O)CO [Streptozocin] |  |  |  |  | Avg (3 + 6) ([1]; in vivo): 0.943 fold; Day 3 Fold ([1]; in vivo): 1.030 fold; Day 6 Fold ([1]; in vivo): 0.856 fold; Log2 (fold) ([1]; in vivo): 0.043 |
| O=C1[O][Pt]2([NH][C@@H]3CCCC[C@H]3[NH]2)[O]C1=O [Oxaliplatin] | 1.082 fold | 0.296 | 1.227 fold | 0.936 fold |  |
| CC/C(=C(\c1ccccc1)c1ccc(OCCN(C)C)cc1)c1ccccc1 [Tamoxifen citrate] | 0.919 fold | −0.046 | 0.968 fold | 0.869 fold |  |
| CN(C)c1nc(N(C)C)nc(N(C)C)n1 [Altretamine] | 0.611 fold | −0.625 | 0.649 fold | 0.574 fold |  |
| Arsenic trioxide | 0.981 fold | −0.074 | 0.950 fold | 1.012 fold |  |
| CCN(CC)CCCC(C)Nc1c2ccc(Cl)cc2nc2ccc(OC)cc12 (stereo not drawn) [Acrichine] | 1.046 fold | −0.212 | 0.863 fold | 1.229 fold |  |
| CO[C@H]1C[C@@H]2CC[C@@H](C)[C@@](O)(O2)C(=O)C(=O)N2CCCC[C@H]2C(=O)O[C@H]([C@H](C)C[C@@H]2CC[C@@H](O)[C@H](OC)C2)CC(=O)[C@H](C)/C=C(\C)[C@@H](O)[C@@H](OC)C(=O)[C@H](C)C[C@H](C)/C=C/C=C/C=C/1C [Rapamycin] | 0.369 fold | −1.216 | 0.431 fold | 0.308 fold | Fold [2]: 0.429 fold; Log2 (fold) (luciferase activity, log2 of the fold difference relative to DMSO controls) [2]: −1.220; Fold (luciferase activity, fold difference relative to DMSO controls) [2]: 0.429 |
| N#Cc1ccc(C(c2ccc(C#N)cc2)n2cncn2)cc1 [Letrozole] | 1.302 fold | 0.337 | 1.263 fold | 1.342 fold |  |
| O=C1c2c(O)ccc(O)c2C(=O)c2c(NCCNCCO)ccc(NCCNCCO)c21 [Mitoxantrone] | 0.883 fold | −0.303 | 0.810 fold | 0.955 fold |  |
| C/C(=C\c1csc(C)n1)[C@@H]1C[C@@H]2O[C@]2(C)CCC[C@H](C)[C@H](O)[C@@H](C)C(=O)C(C)(C)[C@@H](O)CC(=O)N1 [Ixabepilone] | 0.765 fold | −0.009 | 0.994 fold | 0.536 fold |  |
| COc1cccc2c1C(=O)c1c(O)c3c(c(O)c1C2=O)C[C@@](O)(C(C)=O)C[C@@H]3O[C@H]1C[C@H](N)[C@H](O)[C@H](C)O1 [Daunorubicin HCl] | 0.227 fold | −1.484 | 0.358 fold | 0.096 fold |  |
| Cc1c2oc3c(C)ccc(C(=O)N[C@@H]4C(=O)N[C@H](C(C)C)C(=O)N5CCC[C@H]5C(=O)N(C)CC(=O)N(C)[C@@H](C(C)C)C(=O)O[C@@H]4C)c3nc-2c(C(=O)N[C@@H]2C(=O)N[C@H](C(C)C)C(=O)N3CCC[C@H]3C(=O)N(C)CC(=O)N(C)[C@@H](C(C)C)C(=O)O[C@@H]2C)c(N)c1=O [Dactinomycin] (I: T[dV]P[Sar][NMeV] / II: T[dV]P[Sar][NMeV]; ester I:1-I:C, II:1-II:C; linker I:N-II:N via Actinocin(9to1)) | 0.119 fold | −3.068 | 0.119 fold |  | Fold [2]: 0.438 fold; Log2 (fold) (luciferase activity, log2 of the fold difference relative to DMSO controls) [2]: −1.192; Fold (luciferase activity, fold difference relative to DMSO controls) [2]: 0.438 |
| O=C(CCCCCCC(=O)Nc1ccccc1)NO [Vorinostat] | 0.749 fold | −0.703 | 0.614 fold | 0.883 fold |  |
| COc1cc([C@@H]2c3cc4c(cc3[C@@H](O[C@@H]3O[C@@H]5CO[C@@H](c6cccs6)O[C@H]5[C@H](O)[C@H]3O)[C@H]3COC(=O)[C@H]23)OCO4)cc(OC)c1O [Teniposide] | 0.634 fold | −0.679 | 0.625 fold | 0.642 fold |  |
| Cc1ccc(-c2cc(C(F)(F)F)nn2-c2ccc(S(N)(=O)=O)cc2)cc1 [Celecoxib] | 0.755 fold | −0.565 | 0.676 fold | 0.834 fold |  |
| CNC(=O)c1cc(Oc2ccc(NC(=O)Nc3ccc(Cl)c(C(F)(F)F)c3)cc2)ccn1 [Sorafenib] |  |  |  |  | Avg (3 + 6) ([1]; in vivo): 1.046 fold; Day 3 Fold ([1]; in vivo): 0.752 fold; Day 6 Fold ([1]; in vivo): 1.339 fold; Log2 (fold) ([1]; in vivo): −0.410 |
